{
  "source": "patent US12258376B2",
  "about": "“Fusion protein of DCTN1 protein with RET protein” (TAIHO PHARMACEUTICAL CO., LTD., priority 2017, dated 2025)",
  "key": {"[1]": {"test_system": "DCTN1-RET fusion gene-expressing NIH/3T3 cells", "experiment": "In vitro cell growth assay, 3-dimensional cell culture, intracellular ATP luminescence (CellTiter-Glo 2.0)", "settings": "for GI50: Mus musculus, NIH3T3"}, "[2]": {"target": "T1, phosphorylated RET in DCTN1-RET fusion gene-expressing NIH/3T3 cells (Homo sapiens, UniProt P07949)", "T1 construct": "expressed in transfected cells; the other entry of the earlier key: Dctn1 (O08788, Dynactin subunit 1)", "T1 sequence (P07949 with tags, fused parts or gaps with the stated changes)": "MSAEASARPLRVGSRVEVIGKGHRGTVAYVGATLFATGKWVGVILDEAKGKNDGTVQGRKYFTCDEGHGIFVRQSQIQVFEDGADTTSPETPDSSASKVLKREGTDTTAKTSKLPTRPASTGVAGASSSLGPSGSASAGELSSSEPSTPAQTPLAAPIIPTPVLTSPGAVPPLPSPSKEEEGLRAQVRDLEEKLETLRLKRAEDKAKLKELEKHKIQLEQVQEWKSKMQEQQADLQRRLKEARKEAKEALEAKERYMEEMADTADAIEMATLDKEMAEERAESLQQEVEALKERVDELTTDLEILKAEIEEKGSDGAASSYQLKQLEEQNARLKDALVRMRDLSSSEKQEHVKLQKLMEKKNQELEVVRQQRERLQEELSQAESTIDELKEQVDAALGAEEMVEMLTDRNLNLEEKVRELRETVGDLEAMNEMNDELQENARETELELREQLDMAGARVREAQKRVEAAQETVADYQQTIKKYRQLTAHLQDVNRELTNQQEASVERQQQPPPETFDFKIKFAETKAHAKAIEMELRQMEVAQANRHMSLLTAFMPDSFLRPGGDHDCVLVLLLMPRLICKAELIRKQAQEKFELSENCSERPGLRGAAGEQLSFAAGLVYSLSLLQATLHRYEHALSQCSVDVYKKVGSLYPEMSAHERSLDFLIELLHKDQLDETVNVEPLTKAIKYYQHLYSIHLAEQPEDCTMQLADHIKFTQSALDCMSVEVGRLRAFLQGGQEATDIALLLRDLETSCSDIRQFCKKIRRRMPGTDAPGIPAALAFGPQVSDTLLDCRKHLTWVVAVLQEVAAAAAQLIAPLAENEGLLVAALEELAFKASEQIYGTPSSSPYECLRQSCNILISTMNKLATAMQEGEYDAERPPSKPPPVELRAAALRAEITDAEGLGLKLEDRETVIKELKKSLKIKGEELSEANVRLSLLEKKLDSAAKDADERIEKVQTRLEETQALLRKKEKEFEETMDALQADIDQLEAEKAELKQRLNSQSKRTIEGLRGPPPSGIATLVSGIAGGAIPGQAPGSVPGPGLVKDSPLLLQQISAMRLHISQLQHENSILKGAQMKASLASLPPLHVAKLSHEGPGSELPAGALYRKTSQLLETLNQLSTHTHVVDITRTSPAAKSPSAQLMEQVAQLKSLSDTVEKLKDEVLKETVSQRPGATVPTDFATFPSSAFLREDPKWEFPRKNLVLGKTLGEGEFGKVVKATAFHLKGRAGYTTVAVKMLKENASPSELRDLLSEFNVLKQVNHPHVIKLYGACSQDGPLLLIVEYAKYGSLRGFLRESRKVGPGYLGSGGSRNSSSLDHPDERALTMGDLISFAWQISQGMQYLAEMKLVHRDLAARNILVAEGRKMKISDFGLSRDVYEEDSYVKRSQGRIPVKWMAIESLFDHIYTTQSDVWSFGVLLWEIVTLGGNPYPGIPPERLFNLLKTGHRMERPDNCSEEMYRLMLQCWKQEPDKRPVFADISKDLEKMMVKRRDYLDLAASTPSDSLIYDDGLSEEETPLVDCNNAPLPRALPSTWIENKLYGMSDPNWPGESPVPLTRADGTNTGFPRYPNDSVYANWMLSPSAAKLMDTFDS", "experiment": "Inhibition of RET phosphorylation in DCTN1-RET fusion gene-expressing cells (western blotting)", "type": "cell-based", "settings": "1000, 100 and 10 nmol/L, 1 hour incubation, FIG. 9", "protocol": "The expression of DCTN1-RET fusion protein in the obtained DCTN1-RET fusion gene-expressing NIH/3T3 cells was confirmed by western blotting. Specifically, the medium was removed from the culture flask, followed by washing with PBS once. Sample Diluent Concentrate 2 (R&D Systems) containing a phosphatase inhibitor (Roche) and a protease inhibitor (Roche) was added to the culture flask, and the cell lysate was collected with a scraper. From the collected cell lysate, a protein sample was obtained by centrifugation. The protein sample was subjected to protein determination, and the protein concentration was adjusted to a prescribed concentration. […] After the membrane was washed with TBS-T, the protein was detected using a SuperSignal West Dura Extended Duration Substrate (Thermo Fisher) with an Amersham Imager 600 lumino image analyzer (GE Healthcare). The molecular weight of the detected protein was confirmed with Precision Plus Protein Kaleidoscope Prestained Protein Standards (Bio-Rad). As shown in FIG. 4a) and 4b), endogenous RET (150 and 175 kDa) was not detected when the anti-pRET antibody or the anti-RET antibody was used. […] Additionally, as shown in FIG. 4c), endogenous DCTN1 was detected at around 150 kDa in the use of the anti-DCTN1 antibody. […]"}, "[3]": {"test_system": "DCTN1-RET fusion gene-expressing NIH/3T3 cells", "experiment": "Cell growth inhibitory effect of siRNA, 3-dimensional cell culture", "type": "cell-based, mouse", "settings": "3-dimensional cell culture after siRNA treatment; no treatment 4.9 times, negative control siRNA 3.6 times; FIG. 8", "protocol": "NIH/3T3 cells grow well under 2-dimensional cell culture conditions, but barely grow under 3-dimensional cell culture conditions. However, NIH/3T3 cells are also known to grow under 3-dimensional cell culture conditions when an oncogene is expressed in the cells. Thus, whether the DCTN1-RET fusion gene is an oncogene was confirmed using this character. DCTN1-RET fusion gene-expressing NIH/3T3 cells and NIH/3T3 cells were cultured at 37° C. in 5% CO2 in a 2-dimensional cell culture; and collected with trypsin, followed by counting the number of cells. To perform a 3-dimensional cell culture, a medium for 3-dimensional cell culture was prepared using an FCeM-series Preparation Kit (Nissan Chemical Industries, Ltd.), D-MEM (high glucose) (containing L-glutamine, phenol red, sodium pyruvate, and 1500 mg/L sodium hydrogen carbonate) (Wako), and newborn calf serum (NBCS) (Gibco). […] The day following seeding (day 1) and after 8 days from seeding (day 8), the luminescence level (counts per second: cps) was measured using a detection reagent for intracellular ATP luminescence (CellTiter-Glo 2.0 reagent, Promega) with a luminometer (EnSpire, PerkinElmer), and the result was determined to be the indicator for viable cell count. The cell growth rate was then calculated from the measurement result on day 1 and the measurement result on day 8 (N=3). […]\nSubsequently, to confirm a cell growth inhibitory effect, cells were collected with trypsin from the wells without treatment and wells treated with siRNA, and the number of cells was counted. A 3-dimensional cell culture was then performed in the same manner as in Example 5, and on the day seeding was performed (day 0) and after 4 days from seeding (day 4), the number of viable cells was counted in the same manner as in Example 5. The growth rate of the cells was calculated from the measurement result on day 0 and the measurement result on day 4."}, "[4]": {"test_system": "DCTN1-RET fusion protein", "experiment": "Inhibition of DCTN1-RET fusion protein expression by siRNA (western blotting)", "type": "cell-based, human", "settings": "siRNA treatment overnight, DCTN1-RET fusion gene-expressing NIH/3T3 cells, FIG. 7"}},
  "data": [
    {"compound": "COc1cc2c(Nc3ccc(Br)cc3F)ncnc2cc1OCC1CCN(C)CC1", "note": "[Vandetanib]", "values": [
      {"measurement": "GI50", "setting": "[1]", "value": 68.7, "unit": "nM"}
    ]},
    {"compound": "COc1cc2nccc(Oc3ccc(NC(=O)NC4CC4)c(Cl)c3)c2cc1C(N)=O", "note": "[Lenvatinib]", "values": [
      {"measurement": "phosphorylated RET levels", "setting": "[2]", "value": "notably decreased"},
      {"measurement": "GI50", "setting": "[1]", "value": 50.3, "unit": "nM"},
      {"measurement": "growth of DCTN1-RET fusion gene-expressing NIH/3T3 cells", "setting": "[1]; result in words, as shown in Table 7", "value": "inhibited the growth"}
    ]},
    {"compound": "CCACUGCUACCACAAGUUUTT (CCACUGCUACCACAAGUUUNN; listed as RNA, chemistry not given here) [RET siRNA3, siRNA targeting human RET]", "values": [
      {"measurement": "growth: number of cells on day 4 relative to day 0", "setting": "[3]", "value": 3.7, "unit": "times"},
      {"measurement": "expression of the DCTN1-RET fusion protein", "setting": "[4]", "value": "not inhibited"}
    ]},
    {"compound": "GGAUUGAAAACAAACUCUATT (GGAUUGAAAACAAACUCUANN; listed as RNA, chemistry not given here) [RET siRNA2, siRNA targeting human RET]", "values": [
      {"measurement": "growth: number of cells on day 4 relative to day 0", "setting": "[3]", "value": "~2.4", "unit": "times"},
      {"measurement": "expression of the DCTN1-RET fusion protein", "setting": "[4]", "value": "inhibited"}
    ]},
    {"compound": "CCc1cc2c(cc1N1CCC(N3CCOCC3)CC1)C(C)(C)c1[nH]c3cc(C#N)ccc3c1C2=O", "note": "[Alectinib]", "values": [
      {"measurement": "GI50", "setting": "[1]", "value": "> 1000", "unit": "nM"}
    ]},
    {"compound": "CACAUGUCAUCAAAUUGUATT (CACAUGUCAUCAAAUUGUANN; listed as RNA, chemistry not given here) [RET siRNA1, siRNA targeting human RET]", "values": [
      {"measurement": "growth: number of cells on day 4 relative to day 0", "setting": "[3]", "value": "about 2.0 times"},
      {"measurement": "expression of the DCTN1-RET fusion protein", "setting": "[4]", "value": "inhibited"}
    ]},
    {"compound": "COCc1ccc(NC(=O)c2c(C#CCN3CCOCC3)n(C3(C)CC3)c3ncnc(N)c23)cc1", "note": "[Compound 6, 4-amino-N-[4-(methoxymethyl)phenyl]-7-(1-methylcyclopropyl)-6-(3-morpholinopro-1-pyn-1-yl)-7H-pyrrolo[2,3-d]pyrimidine-5-carboxamide]", "values": [
      {"measurement": "GI50", "setting": "[1]", "value": 3.6, "unit": "nM"}
    ]},
    {"compound": "COc1cc2nccc(Oc3ccc(NC(=O)C4(C(=O)Nc5ccc(F)cc5)CC4)cc3)c2cc1OC", "note": "[Cabozantinib]", "values": [
      {"measurement": "GI50", "setting": "[1]", "value": 91.1, "unit": "nM"}
    ]}
  ]
}
